Reference: PubChem BioAssay AID1552 (Sanford-Burnham Center for Chemical Genomics, 2009)
Activity calls are given as the source filed them. How the calls were made is not given here.

target: Ubiquitin-conjugating enzyme E2 N (Homo sapiens) (UniProt P61088); assay: UBE2N binders by NMR, biophysical, purified protein (AID 1552); settings: NMR binding to purified UBE2N
Sequence (P61088 whole entry, looked up): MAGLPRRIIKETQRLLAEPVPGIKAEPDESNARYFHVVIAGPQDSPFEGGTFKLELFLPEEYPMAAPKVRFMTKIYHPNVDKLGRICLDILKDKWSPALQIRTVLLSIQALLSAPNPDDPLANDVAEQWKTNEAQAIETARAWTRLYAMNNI

| SMILES | Kd |
| --- | --- |
| Cc1ccc2c(C)c(C(=O)Nc3nnc(C)s3)oc2c1 | > 4 mM (inactive) |
| CSCCNC(C)=O | > 4 mM (inactive) |
| O=C(NCc1cccs1)c1ccc2c(c1)OCCO2 | > 4 mM (inactive) |
| CCn1nnnc1Oc1ccc(Cl)cc1 | > 4 mM (inactive) |
| N#Cc1cc2c(nc1SCc1ccncc1)CCC2 | > 4 mM (inactive) |
| S=c1ccc(N2CCCCC2)n[nH]1 | > 4 mM (inactive) |
| C=C(C)[C@H]1Cc2c(ccc3c2O[C@@H]2COc4cc(OC)c(OC)cc4[C@@H]2C3=O)O1 | > 4 mM (inactive) |
| COc1ccc([C@@H]2CC(=O)c3c(O)cc(O)cc3O2)cc1O | > 4 mM (inactive) |
| COc1cccc(/C=C/C(=O)O)c1C(C)C | > 4 mM (inactive) |
| Nc1ncnc(NCCOCCO)c1[N+](=O)[O-] | > 4 mM (inactive) |
| Cc1cc(Cl)ccc1NC(=O)C(N)=O | > 4 mM (inactive) |
| O=C(O)c1cccnc1 | > 4 mM (inactive) |
| S=c1nc(C2CC2)[nH]c2ccccc12 | > 4 mM (inactive) |
| c1ccc(CCc2nc(-c3ccccn3)no2)cc1 | > 4 mM (inactive) |
| C[n+]1ccn(C/C(N)=N/O)c1 | > 4 mM (inactive) |
| COc1ccc(NC(=O)CSc2nccc(=O)[nH]2)cc1 | > 4 mM (inactive) |
| CCNC(=O)CC1Nc2ccccc2NC1=O (configuration not stated) | > 4 mM (inactive) |
| CC(C)NC1CS(=O)(=O)CC1O (configuration not stated) | > 4 mM (inactive) |
| O=C1O[C@H](C(O)CO)C(O)=C1O (some centres not stated) | > 4 mM (inactive) |
| CC(=O)O[C@@H]1CC2C(C)(C)[C@@H](O)CC[C@]2(C)C2CC[C@@]3(C)[C@H](c4ccoc4)OC(=O)[C@H]4O[C@]43[C@@]21C (some centres not stated) | > 4 mM (inactive) |
| Cc1cc(C(=O)Nc2nnc(C(F)(F)F)s2)no1 | > 4 mM (inactive) |
| C=C1CCC2[C@](C)(CO)[C@H](O)CC[C@@]2(C)[C@@H]1C/C=C1/C(=O)OC[C@H]1O (some centres not stated) | > 4 mM (inactive) |
| c1ccc(Cc2nnc3sc(-c4ccccn4)nn23)cc1 | > 4 mM (inactive) |
| O=C1CCC(=O)N1c1ccc(O)cc1 | > 4 mM (inactive) |
| Cc1cc(=O)c2c(O)cc(O)c(C)c2o1 | > 4 mM (inactive) |

| SMILES | Kd |
| --- | --- |
| Cc1cn2c(-c3cccnc3)nnc2s1 | > 4 mM (inactive) |
| Cc1ccc(-n2ncc(C#N)c2/N=C/N(C)C)cc1 | > 4 mM (inactive) |
| NS(=O)(=O)c1ccc(NC(=O)c2cccs2)cc1 | > 4 mM (inactive) |
| COc1ccc2c(C)cc(=O)oc2c1 | > 4 mM (inactive) |
| O=C1c2ccncc2C(=O)N1CO | > 4 mM (inactive) |
| O=c1[nH]c(NCCO)nnc1Cc1ccccc1 | > 4 mM (inactive) |
| COC(=O)c1cncc(C(=O)OC)c1 | > 4 mM (inactive) |
| Cc1nnc(N2CCN(Cc3ccccc3)CC2)[nH]c1=O | > 4 mM (inactive) |
| N#Cc1nc(-c2ccccc2Cl)oc1N1CCOCC1 | > 4 mM (inactive) |
| O=C1NC(=S)S/C1=C/c1ccncc1 | > 4 mM (inactive) |
| O=c1cc(-c2ccc(O)cc2)oc2cc(O[C@@H]3O[C@H](CO)[C@@H](O)[C@H](O)[C@H]3O[C@@H]3OC[C@](O)(CO)[C@H]3O)cc(O)c12 | > 4 mM (inactive) |
| COc1ccc2nc(N)sc2n1 | > 4 mM (inactive) |
| Cc1nn2c(=O)c(NC(=O)c3ccccc3)cnc2s1 | > 4 mM (inactive) |
| O=C(NCC1CCNCC1)c1ccncc1 | > 4 mM (inactive) |
| CCN1CCC2(CC1)CC1CC3C=CC1(CN2C(C)=O)O3 (configuration not stated) | > 4 mM (inactive) |
| Cc1cc(N)ccc1NC(=O)c1ccco1 | > 4 mM (inactive) |
| COc1cc2[nH]c(=S)n(C)c(=O)c2cc1OC | > 4 mM (inactive) |
| C=C1C(N)CC2CC1C2(C)C (configuration not stated) | > 4 mM (inactive) |
| O=C(CSc1ccnc(=O)[nH]1)NCc1ccco1 | > 4 mM (inactive) |
| Oc1cc(O)cc(/C=C/c2ccccc2)c1 | > 4 mM (inactive) |
| OC[C@H]1O[C@@H](n2cnc3c(NCc4ccco4)ncnc32)[C@H](O)[C@@H]1O | > 4 mM (inactive) |
| Cn1c(=O)n(C)c2nc([N+](=O)[O-])c(Cl)cc21 | > 4 mM (inactive) |
| C[C@@H]1CC[C@@]2(OC1)O[C@H]1CC3C4CC[C@H]5C[C@@H](O)CC[C@]5(C)C4CC[C@]3(C)[C@H]1[C@@H]2C (some centres not stated) | > 4 mM (inactive) |
| Cc1oc(S(=O)(=O)N2CCCCC2)cc1C(=O)O | > 4 mM (inactive) |
| Cc1cccc(NC(=O)c2ccc(=O)[nH]n2)c1 | > 4 mM (inactive) |

| SMILES | Kd |
| --- | --- |
| Cc1cc(=O)n(C(N)=S)[nH]1 | > 4 mM (inactive) |
| COc1cc(C(=S)N2CCCC2)cc(Cl)c1O | > 4 mM (inactive) |
| COc1ccccc1/C=C\C(=O)O | > 4 mM (inactive) |
| O=C(c1ccccc1F)N1CCN(c2ccccc2)CC1 | > 4 mM (inactive) |
| O=C(O)CCC(=O)c1cccc2ccccc12 | > 4 mM (inactive) |
| O=C(Nc1ccccn1)C(=O)N1CCCC1 | > 4 mM (inactive) |
| CC12CCCC(O)(C1)C1CC(C)(C)C1CC2 (configuration not stated) | > 4 mM (inactive) |
| Cc1nc(CC(=O)O)c(-c2ccccc2)s1 | > 4 mM (inactive) |
| CC(=O)Nc1c(C#N)c(C(C)(C)C)cn1C | > 4 mM (inactive) |
| NC(=O)c1ccccc1NC(=O)c1cccnc1 | > 4 mM (inactive) |
| CSc1ccccc1NC(=O)c1ccco1 | > 4 mM (inactive) |
| CCOC(=O)c1cnc2sccn2c1=O | > 4 mM (inactive) |
| Nc1ncnc2c1ncn2CCN1CCCCC1 | > 4 mM (inactive) |
| COc1c2occc2cc2ccc(=O)oc12 | > 4 mM (inactive) |
| O=C1C2C3C=CC(C3)C2C(=O)N1c1cccnc1 (configuration not stated) | > 4 mM (inactive) |
| Nc1ccc(N2CCOCC2)cc1 | > 4 mM (inactive) |
| Cc1cc(C(=O)NCc2cccnc2)no1 | > 4 mM (inactive) |
| Cn1c(O)c(C2=NC(=S)NC2=O)c2ccccc21 | > 4 mM (inactive) |
| NC(=O)CCS(=O)(=O)CCN1CCOCC1 | > 4 mM (inactive) |
| CC(C)[C@@H]1CC[C@@H](C)C[C@H]1O | > 4 mM (inactive) |
| O=C(NCCO)c1cc2ccccc2cc1O | > 4 mM (inactive) |
| Cc1cc(O)c2c(c1O)C(=O)c1c(O)cc(C)c(O)c1C2=O | > 4 mM (inactive) |
| CC(=O)C1CCC2C3CCC4C[C@H](O)CCC4(C)C3C[C@H](O)C12C (some centres not stated) | > 4 mM (inactive) |
| Brc1ccc(-c2nc(-c3ccncc3)no2)o1 | > 4 mM (inactive) |
| CN(C)C(=O)CSc1nc2ccccc2c(=O)[nH]1 | > 4 mM (inactive) |

| SMILES | Kd |
| --- | --- |
| O=C(O)Cn1cc(C(F)(F)F)ccc1=O | > 4 mM (inactive) |
| C[C@@H]1O[C@@H](O[C@H]2[C@H](Oc3cc(O)c4c(=O)cc(-c5ccc(O)cc5)oc4c3)O[C@H](CO)[C@@H](O)[C@@H]2O)[C@H](O)[C@H](O)[C@H]1O | > 4 mM (inactive) |
| Cn1nnc2cc(C(=O)NC3CCCCC3)ccc21 | > 4 mM (inactive) |
| O=C(O)Cn1nc(-c2ccccc2)c2ccccc2c1=O | > 4 mM (inactive) |
| O=C1CSC(=Nc2ccc(F)cc2)N1 | > 4 mM (inactive) |
| N#Cc1cc(-c2ccccc2)oc1N | > 4 mM (inactive) |
| O=C1Cc2ccccc2N1c1ccccc1 | > 4 mM (inactive) |
| O=C1NC(=S)NC(=O)C1=Cc1ccco1 | > 4 mM (inactive) |
| Cc1nc2ccc(C(=O)O)cc2[nH]1 | > 4 mM (inactive) |
| Cc1oc(-c2ccccc2)cc1C(=O)O | > 4 mM (inactive) |
| COc1ccc(C2CC(=O)c3ccc(OC)cc3O2)cc1 (configuration not stated) | > 4 mM (inactive) |
| Cc1ccc(SCc2cc(=O)n3[nH]cnc3n2)cc1 | > 4 mM (inactive) |
| Cc1nnc2sc(-c3csc4c3CCCC4)nn12 | > 4 mM (inactive) |
| N[C@@H](C(=O)O)[C@@H](O)[C@H](O)[C@H](O)CO | > 4 mM (inactive) |
| Nc1cccc2cccnc12 | > 4 mM (inactive) |
| COC(=O)C(O)c1ccccc1 (configuration not stated) | > 4 mM (inactive) |
| NC(=O)CSc1nc2ncnc(N)c2[nH]1 | > 4 mM (inactive) |
| CCCn1c(S(=O)(=O)O)nc2ccccc21 | > 4 mM (inactive) |
| NC1CS(=O)(=O)CC1O (configuration not stated) | > 4 mM (inactive) |
| O=C1c2ccncc2C(=O)N1CNc1ccccn1 | > 4 mM (inactive) |
| CCOC(=O)c1snnc1-c1ccccc1 | > 4 mM (inactive) |
| NC1=NC(=O)C(Cc2cccc([N+](=O)[O-])c2)S1 (configuration not stated) | > 4 mM (inactive) |
| Cc1ccc(SCc2nc(-c3cccnc3)no2)cc1 | > 4 mM (inactive) |
| CC(=O)Nc1nnc(-c2ccccn2)o1 | > 4 mM (inactive) |
| C=C1CCC2C(CC2(C)C)C(=O)CCC1O (configuration not stated) | > 4 mM (inactive) |

| SMILES | Kd |
| --- | --- |
| NC1CCN(Cc2ccccc2)CC1 | > 4 mM (inactive) |
| NC(=O)c1ccccc1NC(=O)C1CCCO1 (configuration not stated) | > 4 mM (inactive) |
| CC1=CC(=O)NC2C=CC=CC12 (configuration not stated) | > 4 mM (inactive) |
| OC1CCN(c2nccc(C(F)(F)F)n2)CC1 | > 4 mM (inactive) |
| Cc1cc(C(=O)Nn2cnnc2)cs1 | > 4 mM (inactive) |
| S=C(NC1=NCCS1)Nc1ccccc1 | > 4 mM (inactive) |
| Cc1ccc2c(c1)CCCN2C(=O)c1c(C)noc1C | > 4 mM (inactive) |
| COc1ccc(C(=O)O)cc1OC | > 4 mM (inactive) |
| CC(C)CC(=O)Nc1c[nH]c(=O)[nH]c1=O | > 4 mM (inactive) |
| COc1ccc(C)cc1S(N)(=O)=O | > 4 mM (inactive) |
| O=C(O)c1cccnc1N1CCCC1 | > 4 mM (inactive) |
| O=C(Nc1nnc(-c2ccccc2Cl)o1)c1ccco1 | > 4 mM (inactive) |
| O=C(Nc1cnccn1)c1cccc(C(F)(F)F)c1 | > 4 mM (inactive) |
| c1csc(-c2nnc3ccccn23)c1 | > 4 mM (inactive) |
| Cn1nnc2c(N3CCC(C(N)=O)CC3)ncnc21 | > 4 mM (inactive) |
| NC(=O)CN1CCCCCC1=O | > 4 mM (inactive) |
| Cc1ccc(N2C(=O)CCC2=O)cc1 | > 4 mM (inactive) |
| O=C(O)Cc1nc(-c2ccncc2)n[nH]1 | > 4 mM (inactive) |
| O=C(NC1=NCCS1)c1ccc([N+](=O)[O-])cc1Cl | > 4 mM (inactive) |
| CC1=C(C(N)=O)C(c2ccccc2)NC(=O)N1 (configuration not stated) | > 4 mM (inactive) |
| CN=C(C)c1c(O)n(C)c(=S)n(C)c1=O | > 4 mM (inactive) |
| OCC(O)C(O)C(O)CO (configuration not stated) | > 4 mM (inactive) |
